Usually MIC stands for the smallest concentration in the dilution series that meets the test's criterion for growth inhibition. For orientation: Tmax means the time from dosing to the highest level. The Cmax is the maximum level reached in the sampled fluid or tissue.

Here are results for one molecule from ChEMBL document CHEMBL5550169, “A consensus reverse docking approach for identification of a competitive inhibitor of acetyltransferase enhanced intracellular survival protein from Mycobacterium tuberculosis” (Bioorg Med Chem, 2024).

Data set [1] relates to Mycobacterium tuberculosis. Put plainly: Antibacterial activity against Mycobacterium tuberculosis IAR2 assessed as reduction in pellet formation measured after 7 to 14 days by alamar blue assay. It counts as functional. The conditions noted are these: time 7-14 day.
The nature of data set [2]: Tmax in female BALB/c mouse lungs at 100 mg/kg, po administered as single dose via oral gavage and measured upto 24 hrs by LC-MS analysis. It counts as ADME, organism-based. The conditions noted are these: lung.
Data set [3] can be described thus: Cmax in female BALB/c mouse plasma at 100 mg/kg, po administered as single dose via oral gavage and measured upto 24 hrs by LC-MS analysis. It counts as ADME, organism-based.
Data set [4] concerns Mycobacterium tuberculosis. Briefly: Antibacterial activity against Mycobacterium tuberculosis H37Rv assessed as reduction in pellet formation measured after 7 to 14 days by alamar blue assay. To be noted: time 7-14 day. It counts as functional. A general note: The colour change of resazurin is a common sign of viable cells or microbes.
The nature of data set [5]: Cmax in female BALB/c mouse lungs at 100 mg/kg, po administered as single dose via oral gavage and measured upto 24 hrs by LC-MS analysis. It counts as ADME, organism-based. The conditions noted are these: lung.
Data set [6] can be described thus: Tmax in female BALB/c mouse plasma at 100 mg/kg, po administered as single dose via oral gavage and measured upto 24 hrs by LC-MS analysis. It is filed as ADME, organism-based.

Structures are written as SMILES. Values after ≈ are worked out from the molar mass of the structure shown.

For the molecule `Cc1cc(C)c2c(C(=O)NC3CCCCCCC3)c[nH]c2c1`, the figures for the MIC in data set [1] and in data set [4] were not below 250 ng/mL and 4 ng/mL (≈ 0.0134 µM), respectively. In addition, the Tmax in data set [2] was 4 h; in data set [6], 2 h. For the same molecule, the values for the Cmax in data set [3] and in data set [5] were 490 ng/mL and 2470 ng/mL, respectively.
